Laboratory results from patent publication US20250281465A1, “MOLECULES THAT ENHANCE EXTRACELLULAR VESICLE RELEASE” (priority 2022, published 2025).

How the values were obtained:
[1] = tested on: CD63-Tluc-CD9-EmGFP THP-1 reporter cells; assay: CD63 Tluc-CD9 EmGFP THP-1 reporter cell assay (EV/exosome release); type: cell-based, human; conditions: 48 hours incubation
Procedure: All these analogs were evaluated for induction of IL-12 cytokine at 10 μM, followed by dose response IL-12 induction for selected analogs. These analogs were also evaluated for exosome release by quantitating EV release in the supernatant post 48 hours incubation with CD63-Tluc-CD9-EmGFP THP-1 reporter cells.
In the HTS using CD63-Tluc-CD9EmGFP reporter cells (CD63 HTS), PMA (10 ng/ml) was used as a positive control (Shpigelman et al., 2021) and 0.5% DMSO was used as negative control (vehicle, Veh). Briefly, the harvested cells were resuspended in assay media containing 10% exosome-depleted […] (#A2720801, Thermo Fisher Scientific) and plated at 2×10^5 cells/mL (50 μL/well of 384-well plates) (#3674, Corning). Test compounds were added at a final concentration of 10 μM to cells and incubated for 48 hours at 37° C. Subsequently, the plate was centrifuged, supernatant (25 μL) was transferred, and chemiluminescent was measured as recombinant luciferase activity (RLU) after 10 minutes incubation with TurboLuc assay reagent (TurboLuc™ One-Step Glow Assay kit, Thermo Fisher Scientific). The response that measures activation and subsequent release of EVs was calculated using the following formula; % response=100×(compound RLU−average Veh RLU)/(average PMA RLU−average Veh RLU). The viability of cells was assessed using PrestoBlue reagent (Thermo Fisher Scientific). Briefly, PrestoBlue reagent (2.5 μl) was added to the remaining cells and incubated for 30 minutes at room temperature, followed by fluorescence readout at (Ex 560 nm/Em 590 nm) which was normalized to fluorescence data of the Veh wells within the plate to obtain “% viability” calculated as 100×(compound fluorescence/average Veh fluorescence).
CD63 Tluc-CD9 EmGFP THP-1 reporter cell assay. CD63 Tluc CD9 EmGFP THP-1 reporter cell (designated as CD63 Tluc reporter cells) were incubated with 10 μM test compounds, ION (1 μM), or 0.5% DMSO (negative control) in the RPMI 1640 supplemented with exosome-depleted FBS at 5×10^4 cells in 200 μL/well for a 96-well plate for 48 hours at 37° C. Subsequently, the plate was centrifuged, the supernatant was transferred, and chemiluminescence was measured by TurboLuc™ Luciferase One-Step Glow Assay Kit. The response that measures activation and subsequent release of EVs was calculated using the following formula; % response=100×(compound RLU−average Veh RLU)/(average PMA RLU−average Veh RLU).

[2] = tested on: mBMDCs; assay: RNA sequencing analysis of mBMDCs; type: cell-based, mouse; conditions: 5 μM
Procedure: FIGS. 2A-2C. RNA sequencing analysis of mBMDC treated with compound #634, (A) mBMDCs were treated with compound #634 (5 μM) or Veh (0.1% DMSO) or in triplicate for 5 hours. RNA was isolated, and RNA-seq analysis was performed by UC San Diego IGM Genomic Center. Data were analyzed by UC San Diego Moore Cancer Center Biostatistics and Bioinformatics Shared Resources. […] (B) Kyoto Encyclopedia of Genes and Genomes (KEGG) pathway analysis. Normalized enrichment scores (NES) of the top 10 positively and negatively enriched genes sets (FDR≤0.05 and fold change >2).
mBMDCs were treated with compound 634 (5 μM) or Veh (0.1% DMSO) in triplicate for 5 hours. RNA was isolated, and RNA-seq analysis was performed. […] Data were analyzed by UC San Diego Moore Cancer Center Biostatistics and Bioinformatics Shared Resources.
RNA-seq and Data Analysis. mBMDCs (1.5×10^6 cells, 10^6 cells/mL×1.5 mL) were treated with Veh (0.1% DMSO), 634 (5 μM) for 5 hours, and then the total RNA was isolated using Quick-RNA™ Miniprep Kit (Zymo Research). Each group has triplicates. RNA-seq was performed by the sequencing core at the UC San Diego institute for Genomic Medicine Genomics Center. Briefly, paired-ended sequencing was performed on the Illumina NovaSeq 6000. Reads were aligned to the mouse reference genome (mm10) using STAR (ver. 2.5.1), and mRNA expression levels were calculated per gene using RSEM (ver. 1.3.0). Genes were filtered if more than 24 out of 27 of the samples (including compound 634, there were a total of 8 testing compounds and DMSO in triplicated samples) had counts <10. Raw counts were then quantile normalized and used as expression values in the subsequent analysis. Also, if mouse gene IDs corresponded with multiple human genes, the genes with highest variance in expression values were kept (Miller et al., 2011). A total of 11759 genes remained. Limma (liner models for microarray, using Rlimma package) trend tests were used for differential analysis based on log 2 expression values. The Benjamini-Hochberg procedure was applied to control the false discovery rate (FDR). […] RNA-seq data have been deposited in ArrayExpress, https://www.ebi.ac.uk/arrayexpress/(accession no. E-MTAB-12377) (Hayashi, 2022).

[3] = tested on: mBMDCs; assay: Cell viability / cytotoxicity in mBMDCs (MTT); type: cell-based, mouse; conditions: 10 μM
Procedure: FIGS. 30A-30B. […] After 48 hours incubation, cell viability was determined by MTT assay.
mBMDCs (10^5 cells/200 μL/well) were treated with 10 and 5 μM of a test compound in 96-well plates overnight. After 18 hours of drug treatment, MTT (0.5 mg/ml) was added to each well. The cells were lysed after 6-8 hours incubation, and absorbance values at 570 and 650 nm were measured. PrestoBlue reagent (#A13261, Thermo Fisher Scientific) was used for cell viability assay in CD63 HTS as described earlier.
Cell viability assay. mBMDCs (2×10^6 cells/200 μL/well in RPMI1640 supplemented with dialyzed 10% FBS, or 1.5×10^6 cells/200 μL/well in RPMI1640 supplemented with 10% exosome depleted FBS) were treated with 10 μM of each test compound in 96-well plates. After 46-48 hours of compound treatment, MTT (0.5 mg/mL) was added to each well. The cells were lysed after overnight incubation, and absorbance values at 570 and 650 nm were measured.

[4] = 5 hours, FDR≤0.05 and fold change >2

Structure (SMILES) | exosome (EV) release in CD63 reporter THP-1 cells [1] | FC Cdhr1 ([2]; 5 hours vs Veh, down-regulated) | FC Hrh1 ([2]; 5 hours vs Veh, down-regulated) | FC Cdh1 ([2]; 5 hours vs Veh, up-regulated) | FC Htr7 ([2]; 5 hours vs Veh, up-regulated) | FC Oit3 ([2]; 5 hours vs Veh, up-regulated) | FC Ppm1e ([2]; 5 hours vs Veh, up-regulated) | FC Sla2 ([2]; 5 hours vs Veh, up-regulated) | down-regulated genes [2, 4] [genes] | genes with modulated expression compared to Veh [2, 4] [genes] | up-regulated genes [2, 4] [genes] | toxicity to mBMDC [3]
CCOC(=O)c1c(NS(=O)(=O)c2cccc3c2N=S=N3)sc(C)c1C [#634, ethyl 2-(benzo[c][1,2,5]thiadiazole-4-sulfonamido)-4,5-dimethylthiophene-3-carboxylate] | enhanced exosome release | – | – | – | – | – | – | – | – | – | – | –
CCOC(=O)c1c(NS(=O)(=O)c2cccc3nsnc23)sc(C)c1C [compound 634, Ethyl 2-(benzo[c][1,2,5]thiadiazole-4-sulfonamido)-4,5-dimethylthiophene-3-carboxylate] | – | 0.40 | 0.46 | 2.61 | 2.38 | 2.02 | 2.77 | 2.04 | 17 | 103 | 86 | non-toxic
